Experimental findings from patent publication US20250040543A1, “Preservative Composition” (ARXADA AG, priority 2021, published 2025) are described below.

Read-outs that look alike come from different tables or passages of the source.

Holding throughout (assay): MIC and Synergy Index (Kull) of two-component compositions
Common to all, as to format: cell-based

In experiment [1] the test system is Escherichia coli. The conditions noted are these: Escherichia coli; ethyl levulinate alone, or its concentration in the mixture with Sodium benzoate; read-out: MIC (ppm) to inhibit growth: Ethyl levulinate. The protocol: (§1) A wide range of concentrations were tested against Pseudomonas aeruginosa, Staphylococcus aureus, Escherichia coli, and Candda albicans.
(§2) The lowest concentration of each mixture or single compound which prevents an observable level of growth was determined to be the minimum inhibitory concentration (MIC) value.
(§3) Serial dilutions of each mixture or single compound were prepared. Micro-organisms were inoculated into media: Nutrient Broth (bacteria) or Malt Extract Broth (yeast). The final concentrations of micro-organisms in media was approximately 10^5-6 CFU/ml. The inoculated media was introduced to each of the serial dilutions at a 1:1 ratio, and incubated at 30±1° C. for 24-48 hours.
(§4) The MICs for each mixture was compared with the MIC of each single compound alone.
(§5) Synergy was determined using the Kull equation (F. C. Kull et. al., “Mixtures of Quaternary Ammonium Compounds and Long-chain Fatty Acids as Antifungal Agents”, Appl Microbiol. 1961 November; 9(6): 538-541), which calculates a Synergy Index (SI) according the following equation:
(§6) [formula] • wherein • QA=concentration of compound A in ppm, acting alone produced an end point, • Qa=concentration of compound A in ppm, in the mixture, which produced an end point, • QB=concentration of compound B in ppm, acting alone produced an end point, and • Qb=concentration of compound B in ppm, in the mixture, which produced an end point;
(§7) In this study the end point is measured by the MIC.

Experiment [2] concerns Pseudomonas aeruginosa. On the procedure:
as §1, §2, §3, §4, §5, §6, §7

Experiment [3] has as its system Staphylococcus aureus. The settings on record: Staphylococcus aureus, read-out: MIC (ppm) to inhibit growth: Ethyl levulinate. The protocol: as §1, §2, §3, §4, §5, §6, §7
For experiment [4], the system named is Candida albicans. On the procedure: as §1, §2, §3, §4, §7
Setting [5] is: ethyl levulinate alone, or its concentration in the mixture with Sodium Pyrithione.
[6] abbreviates: ethyl levulinate alone, or its concentration in the mixture with Lactic Acid.
Setting [7] is: ethyl levulinate alone, or its concentration in the mixture with Potassium Sorbate.

As usually defined, the MIC is the smallest concentration in the dilution series that meets the test's criterion for growth inhibition.

Consider `CCOC(=O)CCC(C)=O` [Ethyl levulinate, ethyl levulinate], for which the MIC was determined as 25 mg/mL in experiment [1]; 12.5 mg/mL in experiment [2] (Pseudomonas aeruginosa, ethyl levulinate alone, or its concentration in the mixture with ADBAC, read-out: MIC (ppm) to inhibit growth: Ethyl levulinate); 12.5 mg/mL in experiment [3] (setting [6]); 12.5 mg/mL in experiment [3] (setting [7]); 25 mg/mL in experiment [3] (ethyl levulinate alone, or its concentration in the mixture with Sodium benzoate); 25 mg/mL in experiment [4] (Candida albicans, ethyl levulinate alone, or its concentration in the mixture with Sodium benzoate, read-out: MIC (ppm) to inhibit growth: Ethyl levulinate). The “MIC (ppm) to inhibit growth: Ethyl levulinate” value was 12500 ppm in experiment [2] (setting [5]); 25000 ppm in experiment [4] (ethyl levulinate alone, or its concentration in the mixture with ADBAC); 25000 ppm in experiment [4] (setting [6]); 25000 ppm in experiment [4] (setting [7]); 25000 ppm in experiment [4] (setting [5]).
